Measurements: US9873702B2, “Heterocyclic compounds as biogenic amine transport modulators” (Southern Research Institute, priority 2014, dated 2018)
Like-named read-outs stand apart in the source and are kept apart here.

Key:
[1] = target: norepinephrine transporter (NET) (Rattus norvegicus, UniProt Q9WTR4); experiment: Norepinephrine reuptake ([^3H]norepinephrine uptake) inhibition in rat brain synaptosomes; settings: for NE Uptake Emax (% I ± SD): maximal inhibition from dose-response fit
Protocol: Freshly removed whole brain minus cerebellum and caudate was homogenized in 10% ice-cold sucrose with 12 strokes of a hand-held Potter-Elvehjem homogenizer followed by centrifugation at 1000×g for 10 minutes. The supernatants were saved on ice and used immediately. Transporter activity at NET was assessed using 10 nM [^3H]norepinephrine. […] Uptake inhibition assays were conducted at 37° C. and were initiated by adding 100 μL of tissue to 900 μL assay buffer containing test drug and [^3H]norepinephrine. Test drugs were diluted in assay buffer containing 1 mg/mL bovine serum albumin. Nonspecific uptake was measured by incubating in the presence of 10 μM indatraline. The reactions were stopped after 10 minutes by rapid vacuum filtration with a cell harvester (BRANDEL) over GF/B filters (Whatman) presoaked in wash buffer maintained at 25° C. (10 mM Tris-HCl, pH 7.4/150 mM NaCl). Filters were rinsed with 6 mL wash buffer and retained tritium was quantified by a MicroBeta liquid scintillation counter (PerkinElmer) after overnight extraction in 0.6 mL of liquid scintillation cocktail (Cytoscint, ICN). The data from three experiments were pooled and fit to a dose-response curve equation (using Kaleidagraph), to yield an Emax and EC50 value.
The data from three experiments were pooled and fit to a dose-response curve equation (using KaleidaGraph; Synergy Software, Reading, Pa.) to yield an Emax and IC50 value.

DAT = target: T1, DAT (Rattus norvegicus, UniProt P23977); experiment: Dopamine transporter binding, inhibition of [^3H]WIN35428 binding in rat caudate membranes; settings: for EC50: read-out: WIN Binding EC50 (μM ± SD)
T1 construct: from tissue; host or cells: rat caudate membranes
Protocol: The ability of test drugs to inhibit [^3H]WIN35428 binding to DAT in rat caudate membranes was assessed as follows. For each experiment, caudates from four rat brains were suspended in 15 mL ice cold assay buffer (50 mM sodium phosphate pH 7.4) and homogenized using a polytron (setting 6, 20 sec). The homogenate was centrifuged at 30,000×g for 10 minutes at 4° C. The pellet was resuspended with vigorous vortexing in 15 mL fresh ice cold assay buffer, and the centrifugation was repeated. The pellet was resuspended in 15 mL fresh ice cold assay buffer with vigorous vortexing followed by six strokes with a glass-on-glass hand-held homogenizer and was diluted to a final volume of 235 mL in ice cold assay buffer. [^3H]WIN35428 was diluted to 10 nM in assay buffer that contained 25 μg/mL chymostatin, 25 μg/mL leupeptin, 0.1 mM EDTA, and 0.1 mM EGTA. Each assay tube contained 0.75 mL membrane preparation, 0.15 mL test drug diluted in assay buffer containing 1 mg/mL bovine serum albumin, and 0.1 mL [^3H]WIN35428 preparation (final concentration of 1 nM). Assays were initiated by the addition of membranes and were terminated after 2 hours at 25° C. by rapid vacuum filtration. Retained tritium was measured as described. The data from three experiments were pooled and fit to a dose-response curve equation (using Kaleidagraph), to yield an Emax and EC50 value.

[2] = target: T2, dopamine transporter (DAT) (Rattus norvegicus, UniProt P23977); experiment: Dopamine transporter-mediated [^3H]MPP^+ release, shift of D-amphetamine-induced release, rat caudate synaptosomes; assay type: biochemical; design: Freshly removed caudate was homogenized in 10% ice-cold sucrose; from tissue; host or cells: rat caudate synaptosomes
[3] = target: T2, dopamine transporter (DAT); experiment: Dopamine reuptake ([^3H]dopamine uptake) inhibition in rat brain synaptosomes
[4] = target: T3, serotonin transporter (SERT) (Rattus norvegicus, UniProt P31652); experiment: Serotonin reuptake ([^3H]serotonin uptake) inhibition in rat brain synaptosomes; assay type: biochemical
T3 construct: Freshly removed whole brain minus cerebellum and caudate was homogenized; from tissue; host or cells: rat whole brain minus cerebellum and caudate, synaptosomes

[5] = rat brain synaptosomes, 10 nM [^3H]norepinephrine
[6] = read-out: NE Uptake EC50 (nM ± SD), rat brain synaptosomes, 10 nM [^3H]norepinephrine, 10 min, 37° C.
[7] = read-out: NET Uptake IC50, mean ± S.D., n = 3
[8] = 2 h, read-out: DAT Binding εmax
[9] = Emax of D-amphetamine for [^3H]MPP^+ release in presence of 150 nM test compound
[10] = [3H]MPP+ release, Apparent Kc = [Blocker]/((EC50-2/EC50-1) − 1), negative when shifted EC50 is less than control
[11] = apparent Ke from shift of D-amphetamine-induced [^3H]MPP^+ release, compound at the concentration of column 1, read-out: Ke App
[12] = DAT Uptake IC50, [3H]DA uptake inhibition, mean ± S.D., n = 3
[13] = IC50 for DAT Uptake Inhibition, rounded value as listed in Table 10
[14] = read-out: Emax for DAT Uptake Inhibition
[15] = mean ± S.D., n = 3, read-out: SERT Uptake Emax
[16] = mean ± S.D., n = 3, read-out: SERT Uptake IC50
[17] = Emax of D-amphetamine for [^3H]MPP^+ release in presence of 50 nM test compound
[18] = inhibition of [3H]WIN35428 binding, mean ± S.D., n = 3
[19] = Emax of D-amphetamine for [^3H]MPP^+ release in presence of 250 nM test compound
[20] = read-out: WIN Binding Emax (% I ± SD)
[21] = Emax of D-amphetamine for [^3H]MPP^+ release in presence of 5000 nM test compound
[22] = DA Uptake EC50 (nM ± SD), rat caudate synaptosomes, 5 nM [^3H]dopamine, 15 min, 25° C., three experiments pooled
[23] = read-out: DA Uptake Emax (% I ± SD)
[24] = rat brain synaptosomes, 5 nM [^3H]serotonin, 30 min, 25° C., read-out: 5HT Uptake EC50 (nM ± SD)
[25] = rat brain synaptosomes, 5 nM [^3H]serotonin, maximal inhibition from dose-response fit, read-out: 5HT Uptake Emax (% I ± SD)

T3 sequence (P31652 whole entry): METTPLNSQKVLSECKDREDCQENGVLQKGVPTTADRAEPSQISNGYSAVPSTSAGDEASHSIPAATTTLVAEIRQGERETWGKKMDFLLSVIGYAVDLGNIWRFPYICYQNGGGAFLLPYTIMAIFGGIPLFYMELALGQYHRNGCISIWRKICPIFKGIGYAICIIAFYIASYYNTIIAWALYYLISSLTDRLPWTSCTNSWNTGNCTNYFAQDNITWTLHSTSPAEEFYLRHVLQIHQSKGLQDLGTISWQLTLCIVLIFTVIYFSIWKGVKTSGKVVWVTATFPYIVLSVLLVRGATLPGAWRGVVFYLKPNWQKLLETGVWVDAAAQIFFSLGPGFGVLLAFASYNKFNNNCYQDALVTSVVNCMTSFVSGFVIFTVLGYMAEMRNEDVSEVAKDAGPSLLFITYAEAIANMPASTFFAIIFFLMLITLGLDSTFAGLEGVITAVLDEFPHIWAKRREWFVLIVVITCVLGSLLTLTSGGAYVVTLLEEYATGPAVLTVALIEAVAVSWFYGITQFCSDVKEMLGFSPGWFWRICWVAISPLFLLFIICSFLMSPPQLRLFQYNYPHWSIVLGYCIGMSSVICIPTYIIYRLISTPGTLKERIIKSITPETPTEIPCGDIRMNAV
T1 sequence (P23977 whole entry): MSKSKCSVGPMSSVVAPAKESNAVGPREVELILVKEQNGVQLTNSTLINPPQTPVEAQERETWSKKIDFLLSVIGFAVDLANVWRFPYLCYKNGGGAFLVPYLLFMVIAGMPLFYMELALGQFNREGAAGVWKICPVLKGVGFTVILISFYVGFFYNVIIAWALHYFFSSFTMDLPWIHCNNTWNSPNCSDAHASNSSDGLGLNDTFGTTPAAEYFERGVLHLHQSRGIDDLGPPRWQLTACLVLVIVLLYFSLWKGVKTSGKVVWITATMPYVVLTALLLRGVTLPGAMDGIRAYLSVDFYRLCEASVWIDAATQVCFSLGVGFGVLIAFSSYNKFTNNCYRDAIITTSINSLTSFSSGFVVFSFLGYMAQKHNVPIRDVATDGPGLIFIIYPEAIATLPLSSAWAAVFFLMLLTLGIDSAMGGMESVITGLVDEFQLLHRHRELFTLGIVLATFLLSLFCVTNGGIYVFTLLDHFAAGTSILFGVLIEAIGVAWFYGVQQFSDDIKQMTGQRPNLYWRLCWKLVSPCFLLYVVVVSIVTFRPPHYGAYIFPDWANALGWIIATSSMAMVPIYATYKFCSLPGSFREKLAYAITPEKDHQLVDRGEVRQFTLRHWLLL
T2 sequence (P23977 whole entry): as above

Row | NET Uptake Emax ([1]; mean ± S.D., n = 3) [%] | NE Uptake Emax (% I ± SD) [1, 5] [% I] | IC50 [1, 6] [nM] | IC50 [1, 7] [nM] | Emax (DAT; [8]) [%] | Apparent Kc [2, 10] [nM] | Kb [2, 11] [µM] | IC50 [3, 12] [nM] | IC50 [3, 13] [nM] | Emax ([3]; read-out: DAT Uptake Emax) [%] | Emax [3, 14] [%] | Emax [4, 15] [%] | IC50 [4, 16] [nM] | Structure (SMILES) | further results
1 | 69 ± 2 | 69 ± 2 | 60 ± 10 | 60 ± 10 | 25 ± 2 | 1200 | 1.2 | 5.6 ± 0.8 | 6 | 64 ± 1 | 64 | 51 ± 2 | 11 ± 3 | c1ccc(C(CNc2nc(-c3cnc4nccn4c3)nc3ccccc23)c2ccncc2)cc1 (centres unmarked) [compound 110, 2-(Imidazo[1,2-A]Pyrimidin-6-yl)-N-(2-Phenyl-2-(Pyridin-4-yl)Ethyl)Quinazolin-4-Amine] | D-Amphetamine Emax (% ± SD) [2, 9]: 104 ± 5%
2 | 61 ± 2 |  |  | 17 ± 4 | 92 ± 4 | 400 | 0.4 | 1.9 ± 0.3 | 2 | 72 ± 2 | 72 |  | 2.4 ± 0.4 | Cc1cc2nccn2cc1-c1nc(NCC(c2ccccc2)c2ccncc2)c2ccccc2n1 (centres unmarked) [compound 151, 2-(7-Methylimidazo[1,2-A]Pyridin-6-yl)-N-(2-Phenyl-2-(Pyridin-4-yl)Ethyl)Quinazolin-4-Amine] | D-Amphetamine Emax (% ± SD) [2, 17]: 103 ± 3%
3 | 70 ± 2 | 70 ± 2 | 95 ± 12 | 95 ± 12 | 43 ± 4 | 1600 | 1.6 | 6 ± 0.7 | 6 | 70 ± 1 | 70 | 54 ± 1 | 23 ± 3 | c1ccc(C(CNc2nc(-c3cnc4nccn4c3)nc3ccccc23)C2CCCCC2)cc1 (centres unmarked) [compound 102, N-(2-Cyclohexyl-2-Phenylethyl)-2-(Imidazo[1,2-A]Pyrimidin-6-yl)Quinazolin-4-Amine] | D-Amphetamine Emax (% ± SD) [2, 9]: 104 ± 4%
4 | 40 ± 5 | 40 ± 5 | 86 ± 55 | 86 ± 55 |  |  |  | 8.8 ± 1.1 | 9 | 63 ± 1 | 63 | 35 ± 3 | 13 ± 6 | c1ccc(C(CNc2nc(-c3ccc4ncnn4c3)nc3ccccc23)c2ccccc2)cc1 [compound 105, 2-([1,2,4]Triazolo[1,5-A]Pyridin-6-yl)-N-(2,2-Diphenylethyl)Quinazolin-4-Amine] | DAT Binding εmax (DAT; [18]): Inactive; D-Amphetamine Emax (% ± SD) [2, 19]: 105 ± 4%
5 | 69 ± 4 |  |  | 16 ± 5 | 52 ± 8 | 46 |  | 1.7 ± 0.1 | 2 | 69 ± 1 |  |  | 3 ± 0.6 | Cc1cc2nccn2cc1-c1nc(NCC(O)(c2ccccc2)c2ccccc2)c2ccccc2n1 [compound 152, 2-((2-(7-Methylimidazo[1,2-A]Pyridin-6-yl)Quinazolin-4-yl)Amino)-1,1-Diphenylethanol] | D-Amphetamine Emax (% ± SD) [2, 17]: 104 ± 4%
6 |  | 64 ± 10 | 1740 ± 1150 |  |  |  | 7.05 |  |  |  |  |  |  | CN(C)c1ncc(-c2nc(NC(c3ccccc3)c3ccccc3)c3ccccc3n2)cn1 [compound 12, N-Benzhydryl-2-(2-(dimethylamino)pyrimidin-5-yl)quinazolin-4-amine] | EC50 (DAT): 1.8 ± 0.4 µM; Emax (DAT; [20]): 71 ± 4%; D-Amphetamine Emax (% ± SD) [2, 21]: 98 ± 1%; IC50 [3, 22]: 174 ± 58 nM; Emax [3, 23]: 66 ± 4%; IC50 [4, 24]: 699 ± 164 nM; Emax [4, 25]: 48 ± 3%
7 | 70 ± 3 | 70 ± 3 | 290 ± 52 | 290 ± 52 | 87 ± 4 | 456 | 0.456 | 10 ± 1 | 10 | 74 ± 1 | 74 | 54 ± 2 | 68 ± 13 | c1ccc(C(CNc2nc(-c3ccc4[nH]ccc4c3)nc3ccccc23)c2ccccc2)cc1 [compound 17, N-(2,2-Diphenylethyl)-2-(1H-indol-5-yl)quinazolin-4-amine] | EC50 (DAT): 0.9 ± 0.2 µM; D-Amphetamine Emax (% ± SD) [2, 19]: 94 ± 2%
8 |  | 62 ± 5 | 5850 ± 1750 |  |  |  | 25.8 |  |  |  |  |  |  | c1ccc(C(Nc2nc(-c3ccc4[nH]ccc4c3)nc3ccccc23)c2ccccc2)cc1 [compound 13, N-Benzhydryl-2-(1H-indol-5-yl)quinazolin-4-amine] | EC50 (DAT): 2.7 ± 0.3 µM; Emax (DAT; [20]): 77 ± 2%; D-Amphetamine Emax (% ± SD) [2, 21]: 96 ± 3%; IC50 [3, 22]: 212 ± 49 nM; Emax [3, 23]: 71 ± 3%; IC50 [4, 24]: 6380 ± 2640 nM; Emax [4, 25]: 56 ± 9%
9 | 67 ± 3 | 67 ± 3 | 21 ± 7 | 21 ± 7 | 79 ± 3 | 267 | 0.267 | 0.5 ± 0.1 | 0.5 | 63 ± 2 | 63 | 58 ± 3 | 3.2 ± 0.9 | Cc1cc2nccn2cc1-c1nc(NCC(c2ccccc2)c2ccccc2)c2ccccc2n1 [compound 118, N-(2,2-Diphenylethyl)-2-(7-Methylimidazo[1,2-A]Pyridin-6-yl)Quinazolin-4-Amine] | D-Amphetamine Emax (% ± SD) ([2]; Emax of D-amphetamine for [^3H]MPP^+ release in presence of 12.5 nM test compound): 104 ± 3%
10 | 81 ± 2 | 81 ± 2 | 88 ± 15 | 88 ± 15 | 42 ± 3 | 1600 | 1.6 | 6.1 ± 1 | 6 | 64 ± 2 | 64 | 56 ± 2 | 18 ± 4 | c1ccc(C(CNc2nc(-c3ccc4nccn4c3)nc3ccccc23)c2ccc[nH]2)cc1 (centres unmarked) [compound 117, 2-(Imidazo[1,2-A]Pyridin-6-yl)-N-(2-Phenyl-2-(1H-Pyrrol-2-yl)Ethyl)Quinazolin-4-Amine] | D-Amphetamine Emax (% ± SD) [2, 9]: 105 ± 4%
11 | 68 ± 7 |  |  | 143 ± 61 | 100 ± 3 | 1940 |  | 7.1 ± 2.2 | 7 |  | 70 |  | 49 ± 27 | CN(C)c1ccc(-c2nc(NCC(c3ccccc3)c3ccccc3)c3ccccc3n2)cc1 [SRI-29786] | 

Row | Structure (SMILES) | NET Uptake Emax ([1]; mean ± S.D., n = 3) [%] | NE Uptake Emax (% I ± SD) [1, 5] [% I] | IC50 [1, 6] [nM] | IC50 [1, 7] [nM] | Emax (DAT; [8]) [%] | Apparent Kc [2, 10] [nM] | Kb [2, 11] [µM] | IC50 [3, 12] [nM] | IC50 [3, 13] [nM] | Emax ([3]; read-out: DAT Uptake Emax) [%] | Emax [3, 14] [%] | Emax [4, 15] [%] | IC50 [4, 16] [nM] | further results
12 | Cl.Fc1ccc2c(NCC(c3ccccc3)c3ccccc3)nc(-c3ccc4nccn4c3)nc2c1 [compound 124, N-(2,2-Diphenylethyl)-7-Fluoro-2-(Imidazo[1,2-A]Pyridin-6-yl)Quinazolin-4-Amine Hydrochloride] | 63 ± 3 | 63 ± 3 | 94 ± 22 | 94 ± 22 |  |  |  | 7.4 ± 1.1 | 7 | 69 ± 1 | 69 |  | 25 ± 7 | DAT Binding IC50 (DAT; [18]): Inactive; DAT Binding εmax (DAT; [18]): Inactive; Apparent Kc [2]: 3200 nM; Kb [2]: 3.2 µM; D-Amphetamine Emax (% ± SD) ([2]; Emax of D-amphetamine for [^3H]MPP^+ release in presence of 200 nM test compound): 104 ± 5%; Emax ([4]; read-out: SERT Uptake Emax): 49 ± 2%
